Laboratory results as given in patent publication US5369120A, “Pharmaceutical composition of 7-((substituted)amino-8-((substituted)carbonyl)-(methylamino)-1-oxasp iro(4,5)decanes and L-dopa” (Warner-Lambert Company, priority 1993, dated 1994).

Tested on: rats rendered Parkinsonian by injection of reserpine
Test: locomotor activity and rigidity in reserpine-treated Parkinsonian rats
Type: in vivo, rat
Settings: reserpine (4 mg/kg) rats; L-DOPA 80 mg/kg intraperitoneal, subthreshold dose

With `N[C@@H](Cc1ccc(O)c(O)c1)C(=O)O` [L-DOPA, 3-(3,4-dihydroxyphenyl)L-alanine] the Locomotor scores was “very low locomotor scores”.
